In patent US8603227B2, “Composition for prevention of influenza viral infection comprising tannic acid, air filter comprising the same and air cleaning device comprising the filter” (Woongjin Coway Co., Ltd., priority 2009, dated 2013):

Experiments:
Assay type in all cases: cell-based, influenza A virus subtype H1N1
[1] = test system: new influenza A (H1N1) (A/California/O4/09); test: Plaque assay of tannic acid against new influenza A (H1N1) A/California/O4/09 on MDCK cells
Protocol: (§1) Tannic acid was assayed for inhibitory activity against influenza virus as follows.
(§2) As influenza virus strains to be tested, influenza A subtype H1N1 viruses A/PR/8 (H1N1) and A/WSN (H1N1) as well as the WHO standard strain influenza A (H1N1) (A/California/O4/09), which was responsible for the declaration of the 2009 pandemic, were used.
(§3) Tannic acid was used as a sample in the following procedure.
(§4) The MDCK (Mardine Darbine Canine Kidney) cell line was inoculated at a density of 1.5×10^6 cells/mL into 6-well plates which were then incubated at 37° C. for 24 his in a 5% CO2 atmosphere. Separately, tannic acid was diluted to 100 mg/ml (1×) in an injection solution. The dilution was subjected to serial 10-fold dilutions. The specimens thus obtained were added in an amount of 90 μL per well to 96-well plates. 10 uL of an influenza virus sample was added to each well, incubated for 10 min, and 10-fold diluted with PBS. The MDCK cell line which had grown to confluence on the plates was infected with 1 mL of the dilution and incubated for 1 hr. For an “infection+non-administration” control, the MDCK cell line was infected with influenza virus which had not been treated with tannic acid.
(§5) Thereafter, the medium was removed, and a mixture of 1:1 2× agarose:2×MEM containing 10 μg/ml trypsin was added in an amount of 2 mL per well. […]

[2] = test system: influenza A/WSN/33 (H1N1); test: Plaque assay of tannic acid against influenza A/WSN/33 (H1N1) on MDCK cells
Protocol: as §1, §2, §3, §4, §5

influenza A/PR/8 (H1N1) = test: Plaque assay of tannic acid against influenza A/PR/8 (H1N1) on MDCK cells
Protocol: as §1, §2, §3, §4, §5

[3] = (1-treated/control)x100, MDCK plaque count
[4] = virus incubated 10 min with tannic acid, MDCK plaque count

O=C(OC[C@H]1O[C@@H](OC(=O)c2cc(O)c(O)c(OC(=O)c3cc(O)c(O)c(O)c3)c2)[C@H](OC(=O)c2cc(O)c(O)c(OC(=O)c3cc(O)c(O)c(O)c3)c2)[C@@H](OC(=O)c2cc(O)c(O)c(OC(=O)c3cc(O)c(O)c(O)c3)c2)[C@@H]1OC(=O)c1cc(O)c(O)c(OC(=O)c2cc(O)c(O)c(O)c2)c1)c1cc(O)c(O)c(OC(=O)c2cc(O)c(O)c(O)c2)c1 [Tannic Acid, Tannic acid]
Inhibitory Activity [1, 3]: 99.99%
Virus Titer [1, 4]: Not-detected
Inhibitory Activity [2, 3]: 99.99%
Virus Titer [2, 4]: Not-detected
Inhibitory Activity (influenza A/PR/8 (H1N1); [3]): 99.99%
Virus Titer (influenza A/PR/8 (H1N1); [4]): Not-detected
